Experimental findings from US9670199B2, “Ergoline derivatives as dopamine receptor modulators” (REGENTS OF THE UNIVERSITY OF MINNESOTA, priority 2012, dated 2017) are described below.

Each structure is given as a SMILES string.

The target of assay [1] is T1, 5-HT2B receptor (Homo sapiens, UniProt P41595). The experiment in a line: 5-HT2B competitive binding assay against 125I-radiolabeled 2,5-dimethoxy-4-iodoamphetamine (agonist radioligand). The following applies: result in words. From the text: (§1) The biological activity of representative compounds of the invention can be determined using a number of assays that are known.

Assay [2] has as its target T1, 5-HT2B receptor. The experiment in a line: 5-HT2B functional assay (agonism), HTRF quantitation of IP1 accumulation. Type of assay: cell-based. The following applies: for 5-HT2B agonism (type of agonist): result in words.
From the text: as §1

Assay [3] concerns the target T1, 5-HT2B receptor. The assay can be described thus: 5-HT2B functional assay, antagonism against serotonin. Type of assay: cell-based. The conditions noted are these: result in words. As for the experimental part:
(§2) The biological activity of representative compounds of the invention can be determined using a number of assays that are known. For example, 5-HT2B functional assays were performed following the procedure reported by Porter, R. H. P., et al., Br. J. Pharmacol. 1999, 128, 13-20. 5-HT2B binding assays were performed following the procedure reported by Choi, D.-S., et al., FEBS Lett. 1994, 352, 393-399, using an agonist radioligand. D2 and D4 functional assays were performed following the method reported by Jensen, N. H., et al., Neuropsychopharmacology 2007, 33, 2303-2312.

For assay [4], the target named is D2 receptor (Homo sapiens, UniProt P14416). The assay can be described thus: D2 functional assay. Type of assay: cell-based. As for the experimental part:
as §2

Assay [5] deals with T2, D4 receptor (Homo sapiens, UniProt P21917).
T2 sequence (P21917 1-419): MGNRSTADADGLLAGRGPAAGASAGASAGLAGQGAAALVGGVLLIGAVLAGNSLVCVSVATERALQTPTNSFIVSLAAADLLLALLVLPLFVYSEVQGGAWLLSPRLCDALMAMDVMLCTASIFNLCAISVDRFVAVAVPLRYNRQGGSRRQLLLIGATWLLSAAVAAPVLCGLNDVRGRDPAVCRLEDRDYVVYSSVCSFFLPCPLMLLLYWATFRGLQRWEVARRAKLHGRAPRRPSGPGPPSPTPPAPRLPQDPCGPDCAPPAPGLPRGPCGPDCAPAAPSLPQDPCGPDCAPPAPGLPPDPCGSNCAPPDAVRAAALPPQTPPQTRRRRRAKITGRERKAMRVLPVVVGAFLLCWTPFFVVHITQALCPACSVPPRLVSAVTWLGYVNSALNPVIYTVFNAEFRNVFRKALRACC
The assay can be described thus: D4 functional assay. The following applies: result in words. Type of assay: cell-based. As for the experimental part:
as §2

In assay [6] the test system is male rats. The assay can be described thus: Effects on sexual function in rats. The following applies: gavage. Type of assay: in vivo, rat. The text has this: Effects of Cabergoline on Sexual Function in Rats. […] This can be tested by seeing whether it can potentiate the induction of a conditioned partner preference. For example, a study could be performed where rats take the drug immediately before their first sexual experience with an almond scented female and 4 days later the cabergoline rats are put in an open field with two females, one scented and the other unscented. Males given their first, e.g., 10, copulatory experiences with scented females would show a significant conditioned ejaculatory preference to ejaculate preferentially with the scented female. […] Cabergoline could also be similarly tested on males that have had their ejaculations reduced to near zero by chronic administration of the SSRI fluoxetine. SSRIs are known to induce anorgasmia, and currently there is no treatment for this side effect.

T1 sequence (P41595 whole entry): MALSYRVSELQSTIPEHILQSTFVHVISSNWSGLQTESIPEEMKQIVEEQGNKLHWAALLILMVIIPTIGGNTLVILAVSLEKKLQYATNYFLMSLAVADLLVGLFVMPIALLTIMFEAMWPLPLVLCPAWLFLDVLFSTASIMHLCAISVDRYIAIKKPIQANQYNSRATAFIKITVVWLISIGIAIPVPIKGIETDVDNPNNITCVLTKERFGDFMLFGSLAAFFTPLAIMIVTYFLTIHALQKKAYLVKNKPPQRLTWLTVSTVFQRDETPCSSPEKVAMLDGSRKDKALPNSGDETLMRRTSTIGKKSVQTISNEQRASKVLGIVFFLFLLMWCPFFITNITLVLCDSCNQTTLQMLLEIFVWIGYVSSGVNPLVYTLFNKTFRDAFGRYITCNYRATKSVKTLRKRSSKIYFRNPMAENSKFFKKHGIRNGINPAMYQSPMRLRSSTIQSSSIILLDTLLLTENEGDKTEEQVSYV
D2 receptor, sequence (P14416 whole entry): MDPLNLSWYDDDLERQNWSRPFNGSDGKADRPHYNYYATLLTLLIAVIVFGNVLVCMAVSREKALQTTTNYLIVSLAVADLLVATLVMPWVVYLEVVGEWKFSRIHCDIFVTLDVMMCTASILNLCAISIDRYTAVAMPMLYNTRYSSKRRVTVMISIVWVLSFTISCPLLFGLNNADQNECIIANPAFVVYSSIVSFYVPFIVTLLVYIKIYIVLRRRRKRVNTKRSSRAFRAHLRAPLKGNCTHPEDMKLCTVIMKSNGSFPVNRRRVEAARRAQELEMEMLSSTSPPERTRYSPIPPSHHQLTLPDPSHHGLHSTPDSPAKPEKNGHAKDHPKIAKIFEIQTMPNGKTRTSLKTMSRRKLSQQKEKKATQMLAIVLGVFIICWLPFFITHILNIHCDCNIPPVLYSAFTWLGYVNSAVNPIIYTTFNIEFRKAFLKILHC

Take `C=CCN1C[C@H](C(=O)N(CCCN2CCOCC2)C(=O)NCC)C[C@@H]2c3cccc4[nH]cc(c34)C[C@H]21` [Compound 1, (5R,8R,10R)-6-Allyl-N-[3-(morpholino)propyl]-N-[(ethylamino)carbonyl]-ergoline-8-carboxamide]: in assay [1], the “activity/potency at 5-HT2B receptor in radioactive binding assay, compared with cabergoline” value is listed as “not significantly less active”. Moreover, the “5-HT2B agonism (type of agonist)” value in assay [2] is recorded as “full agonists”.
Turning to `CCNC(=O)N(CCCN(C)C)C(=O)[C@@H]1C[C@@H]2c3cccc4c3c(cn4C)C[C@H]2N(C)C1` [Compound 9, 1,6-Dimethylcabergoline], the “5-HT2B agonism (type of agonist)” value in assay [2] is reported as “no agonism”. The “5-HT2B antagonism against serotonin” value in assay [3] is given as “potent antagonists”. In addition, in assay [4], a half-maximal effect (EC50) was put at 1.4 nM and the Emax worked out at 50%. For the same compound, the “D2 agonism (type of agonist)” value in assay [4] (result in words) is recorded as “potent but partial D2 agonist”. In addition, the “D4 agonism (type of agonist)” value in assay [5] was “full D4 agonist”.
Take `CN(C)CCCNC(=O)[C@@H]1C[C@@H]2c3cccc4c3c(cn4C)C[C@H]2N(C)C1` [Compound 14, (5R,8R,10R)-1,6-Dimethyl-N-[3-(dimethylamino)propyl]ergoline-8-carboxamide]: the Emax in assay [2] (read-out: 5-HT2B Emax) is less than 12%. Moreover, the “5-HT2B agonism (type of agonist)” value in assay [2] was “minimal to no agonism”. Besides, the “5-HT2B antagonism against serotonin” value in assay [3] is “potent antagonists”.
With `COC(OC)[C@@H]1C[C@@H]2c3cccc4c3c(cn4C)C[C@H]2N(C)C1` [Compound 15], in assay [2], the “5-HT2B agonism (type of agonist)” value was “no agonism”. In assay [3], the “5-HT2B antagonism against serotonin” value is reported as “potent antagonists”.
On to `C=CCN1C[C@H](C(=O)N(CCCN(C)C)C(=O)NCC)C[C@@H]2c3cccc4[nH]cc(c34)C[C@H]21` [cabergoline], for which the “5-HT2B agonism (type of agonist)” value in assay [2] is given as “full agonists”. For the same compound, in assay [6], the “anticipatory level changes prior to copulation (anticipatory desire)” value is reported as “increased”, the “ejaculation latencies vs controls” value was “shorter ejaculation latencies”, the “intromissions before ejaculation vs controls” value was “more intromissions” and the “number of ejaculations vs controls” value is recorded as “significantly more times”.
